The numbers were not newly measured in patent US20200155510A1, “TREATMENT OF AUTOIMMUNE DISORDERS, SUCH AS RELAPSING REMITTING MULTIPLE SCLEROSIS AND […] SYNDROME WITH BIOTIN COMPOSITIONS” (JDS Therapeutics, LLC, priority 2018, published 2020), which cites them from elsewhere.

Each structure is given as a SMILES string.

The conditions of the data set: relative to biotin; background statement, no method given.

`O=C(O)CCCC[C@@H]1SC[C@@H]2NC(=O)N[C@@H]21` [Magnesium biotinate, Magnesium D-biotinate]: the water solubility result is “more water soluble than biotin”.
